Assay results reported in patent EP2326328B1, “USE OF DIHYDRALAZINE FOR THE TREATMENT OF DISEASES RELATED TO ELEVATED SEMICARBAZIDE SENSITIVE AMINE-OXIDASE (SSAO) ACTIVITY” (Semmelweis Egyetem, priority 2008, dated 2010).

Assay: blood pressure and pulse of treated type 2 diabetic patients
Format: in vivo, human
Details: type 2 diabetic patients, oral 14.5 mg dihydralazine sulphate twice daily
Procedure: After giving their informed consent, patients participating in the study were treated for 56 days taking ½ tablet twice daily of a pharmaceutical composition containing 28.9 mg dihydralazine sulphate (i.e. the ½ tablet contained 14.5 mg dihydralazine sulphate).
To measure the efficacy and monitor the safety of the treatment, the following examinations were carried out before starting the treatment and at the 1., 7., 14., 28. and 56. day of the treatment: • 1. ocular examinations: visual acuity (ETDRS chart), slit-lamp examination, measurement of intraocular pressure with applanation tonometry, fundus biomicroscopy with pupil dilation, digital fundus photography. The grade of macular edema was determined via measuring retinal thickness with optical coherency tomography (OCT). • 2. internal medicine examinations: anamnesis, physical examinations, blood pressure, pulse, urine examination. • 3. laboratory examinations: blood glucose, HbA1c, liver function, kidney function, microalbuminuria, metabolic panel of the blood , lipids, CRP.
In the table the following abbreviations were used: • BMI: body mass index - weight (kg) / height (m^2) • RRsyst: blood pressure (systolic) (Hgmm) • RRdiast: blood pressure (diastolic) (Hgmm) • OCT CST (central subfield thickness): the average thickness of the central 1-mm area of the macula • OCT CPT (center point thickness): the thickness of the center point of the retina; normally that is the thinnest point of the macula Table 4.

For dihydralazine sulphate, the blood pressure was “no appreciable lowering of blood pressure was observed”.
